Experimental data reported in patent US9969695B2, “N-substituted imidazole carboxylic ester chiral compound containing an ether side chain, its preparation and application” (WEST CHINA HOSPITAL, SICHUAN UNIVERSITY, priority 2013, dated 2018).
Read-outs that look alike come from different tables or passages of the source.

What was measured:
Male SD rats [1] = experiment: ED50 by the sequential method, extinction of rat body-righting reflex; type: in vivo; conditions: Rattus norvegicus, etomidate as Etomidate-Lipuro, extinction of body-righting reflex ≥30 s, read-out: 50% effective dose (ED50)
Procedure: (§1) Male SD rats (250˜300 g) were used as an experimental animal, and 50% effective dose (ED50) was determined by the sequential method. Three compounds were dissolved in a solvent of DMSO, and etomidate was used as the commercially-available formulation (B BRAUN, Etomidate-Lipuro®, 20 mg/10 mL). Based on the initial dose of 1 mg/kg, other dosages were adjusted as the ratio of 0.8, and the ED50 values of the three compounds and etomidate were determined. Extinction time ≥30 s for the rat body-righting reflex was the positive marker while no disappearance of the righting reflex was considered invalid. Based on the experimental results, four cross-points were formed, and the ED50 values were calculated. […] Then, the respective 2ED50 values of the three compounds and etomidate were taken in an equivalent dose, which were administered via the rat tail vein. The preliminary effects were evaluated in the four rat groups, which were given the three compounds of Formulas (I), (IV), (V) and etomidate, respectively, with 10 rats in each group. […] The last time of the Formula (I) compound and etomidate was 5-6 min, but the last time of the Formulas (IV) and (V) compounds was 10-20 min. […] DMSO had no pharmacological effects, and no adverse effects were observed. The onset time, the last time, and the adverse effects (types, incidence rates) induced by the three compounds and etomidate are shown in the following table:
(§2) Male SD rats (250˜300 g) were used as an experimental animal, and 50% effective dose (ED50) was determined by the sequential method. Hydrochlorides of the three compounds were dissolved in the solvent of normal saline, and etomidate was used as the commercially-available formulation (B BRAUN, Etomidate-Lipuro®, 20 mg/10 mL). The initial dose was 1 mg/kg, and the ratio of dosage variation was 0.8, which was applied in the determination of ED50 values of Formula (I) hydrochloride, Formula (I) hydrobromide, Formula (I) trifluoroacetate, and etomidate. Extinction time (≥30 s) of the rat body-righting reflex was the positive marker while no disappearance of the reflex was considered invalid. Based on the experimental results, four cross-points were formed, and then ED50 values were calculated. […] Then, the respective 2ED50 values of the three compounds and etomidate were taken in an equivalent dose, which were administered via the rat tail vein. The preliminary effects were evaluated in the four rat groups, which were given the three compounds of Formulas (I) hydrochloride, Formula (I) hydrobromide, Formula (I) trifluoroacetate, and etomidate, respectively, with 10 rats in each group. […] Palinesthesia time was in arrange of 5-10 min. During the test period, no significant difference was found in the types and the incidence rates of adverse effects in each group. DMSO had no pharmacological effects, and no adverse effect was found. The onset time, the last time, and the types and the incidence rates of adverse effects induced by the three salt compounds and etomidate are shown in the following table: […]

Male SD rats [2] = experiment: Onset time, last time, palinesthesia time and adverse effects at 2ED50 via the rat tail vein; type: in vivo; conditions: for Incidence of adverse effect: Muscle tremor / Onset time: 10 rats per group; for Last time: disappearance to recovery of body-righting reflex
Procedure: as §1, §2

[3] = system: self-synthesis of adrenocortical hormone; experiment: Increase degree of cortical hormone (cortisol, corticosterone) in blood serum after ACTH stimulation, ELISA; type: in vivo; conditions: Beagle dogs; for Increase degree of corticosterone / Increase degree of cortisol: 2ED50, dexamethasone baseline, 1 h after ACTH
Procedure: Male Beagle dogs (10±2 kg) were selected as an experimental animal. After administration, the contents of corticosterone and cortisol in the blood serum of the Beagle dogs were determined by the ELISA kit and the enzyme-labelled instrument. The 20 Beagle dogs were divided into five groups, with four dogs in each group. After respective administration of dexamethasone (0.01 mg/kg), the level of adrenal cortex in the dog body was lowered to the baseline, and those levels of corticosterone and cortisol at this time were used as the base value (baseline). […] After 10 min, ACTH (adrenocortical hormone) was given to stimulate and cause an increased level of cortex in the dog body. One hour after administration of ACTH, both corticosterone and cortisol levels in the blood serum of the Beagle dogs were determined, and the ratio of the peak value to the base value of the cortex levels was calculated. This ratio indicated the increase degree of the cortical hormone. A greater degree indicated a less inhibitory effect of the medicine on the cortical hormone. After administration, compounds of Formulas (I), (IV) and (V), DMSO, and the increase degree of the cortical hormone followed by stimulation of ACTH are shown in the following table:
Male Beagle dogs (10±2 kg) were selected as an experimental animal. After administration, the contents of corticosterone and cortisol in the blood serum of the Beagle dogs were determined by the ELISA kit and the enzyme-labelled instrument. The 20 Beagle dogs were divided into five groups, with four dogs in each group. After respective administration of dexamethasone (0.01 mg/kg), the level of adrenal cortex in the dog body was lowered to the baseline, and the levels of corticosterone and cortisol at this time were used as the baseline. Then, the equivalent doses (2ED50) of the compounds of Formula (I) hydrochloride (3.62 mg/kg), hydrobromide (3.86 mg/kg), trifluoroacetate (4.66 mg/kg), the positive control medicine Etomidate-Lipuro® (0.9 mg/kg), and the equal-volume of solvent DMSO were respectively administrated into the dogs of the five groups. After 10 min, ACTH was given to stimulate and cause the cortex levels increase in the dog body. One hour after administration of ACTH, both the cortical hormone levels were determined, and the ratio of the peak value to the baseline of cortex levels was calculated. This ratio indicated the increase degree of the cortical hormone. A greater degree of increase indicated a less inhibitory effect of the medicine on the cortical hormone. After administrations, the three salts of the Formula (I) compound, DMSO, the increase degree of the cortical hormone followed by stimulation of ACTH are shown in the following table: […]

[4] = after one intravenous bolus of etomidate 3 mg/kg, cited from earlier work
11β-hydroxylase = 11β-hydroxylase versus GABAA; cited from earlier work
[5] = Example 9, 2ED50 via tail vein, listed as etomidate
[6] = Example 10, ratio of peak value to base value
[7] = Example 11, ratio of peak value to baseline

CCOC(=O)c1cncn1[C@H](C)c1ccccc1 [Etomidate, reference compound]
ED50 (Male SD rats [1]; Example 8, compounds in DMSO): 1.14 mg/kg
ED50 (Male SD rats [1]; Example 9, salts in normal saline): 1.06 mg/kg
sedative-hypnotic and general anesthetic effects (conclusion in words) (Male SD rats [2]; Example 8): good sedative-hypnotic and general anesthetic effects
Incidence of adverse effect: Muscle tremor (Male SD rats [2]; Example 8, 2ED50 via tail vein): 70%
Onset time (Male SD rats [2]; Example 8, 2ED50 via tail vein): Immediate
Onset time (Male SD rats [2]; Example 8, 2ED50 via tail vein, listed as etomidate): immediate action
Last time (Male SD rats [2]; Example 8, 2ED50 via tail vein): 6.1 ± 1.3 min
Palinesthesia tune (Male SD rats [2]; Example 8, 2ED50 via tail vein, recovery to full recovery of body-righting reflex): 4.5 ± 1.2 min
sedative-hypnotic and general anesthetic effects (conclusion in words) (Male SD rats [2]; Example 9): good sedative-hypnotic and general anesthetic effects
Incidence of adverse effect: Muscle tremor (Male SD rats [2]; Example 9, 2ED50 via tail vein): 60%
Onset time (Male SD rats [2]; Example 9, 2ED50 via tail vein): Immediate
Onset time (Male SD rats [2]; [5]): immediate action
Last time (Male SD rats [2]; Example 9, 2ED50 via tail vein): 5.9 ± 1.5 min
Last time (Male SD rats [2]; [5]): 4 to 8 min
Palinesthesia time (Male SD rats [2]; Example 9, 2ED50 via tail vein, recovery to full recovery of body-righting reflex): 5.1 ± 1.3 min
Increase degree of corticosterone [3, 6]: 2.53 ± 0.65
Increase degree of cortisol [3, 6]: 2.12 ± 0.56
inhibition on cortical hormone (conclusion in words) ([3]; Example 10, after stimulation by ACTH): significantly inhibit the self-synthesis of adrenocortical hormone
cortical hormone increase after stimulation by ACTH (conclusion in words) ([3]; Example 11): significantly suppress the self-synthesis of adrenocortical hormone
Increase degree of corticosterone [3, 7]: 2.80 ± 0.76
Increase degree of cortisol [3, 7]: 2.46 ± 0.87
time for the plasma medicine concentration maintaining [4]: 8 min
time of plasma medicine concentration maintaining above 8 ng/mL [4]: up to 8 h
minimal effective concentration for inhibition of cortical hormone synthesis ([4]; plasma): 8 ng/mL
minimal effective concentration of anesthetic effect ([4]; plasma): 110 ng/mL
ability of binding to 11β-hydroxylase relative to binding to GABAA acceptor (11β-hydroxylase): 100 times
